Literature values, collected in patent publication US12708634B2, “Psilocybin derived compositions and methods using same” (1242753 Ontario Inc., priority 2021, dated 2026).

What was measured:
[1] = test system: patients with advanced-stage cancer; conditions: oral dose 0.2 mg/kg
[2] = test system: patients with treatment-resistant major depression; conditions: two oral doses (10 mg followed by 25 mg a week later)

CN(C)CCc1c[nH]c2cccc(OP(=O)(O)O)c12 [psilocybin]
adverse events [1]: no clinically significant adverse events
adverse events [2]: no clinically significant adverse events
